Test results: patent US20240041042A1, “1-(PYRIDYL)-5-AZINYLPYRAZOLE DERIVATIVES, AND THEIR USE FOR CONTROL OF UNDESIRED PLANT GROWTH” (Bayer Aktiengesellschaft, priority 2020, published 2024)
Like-named read-outs stand apart in the source and are kept apart here.

Tests used:
Format in all cases: in vivo
[1] = tested on: Glycine max (GLXMA); settings: pre-emergence, 80 g/ha, crop plant compatibility, in comparison to untreated controls
How it was run: (§1)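 Scoring: visual, % of untreated control, about 3 weeks after a pre-emergence application to the soil surface. Application used WP or EC formulations diluted in water with 0.5% additive at 600 l/ha; dosage levels are marked by suffixes a, b and c.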

[2] = tested on: Oryza sativa (ORYSA); settings: pre-emergence, crop plant compatibility, in comparison to untreated controls
How it was run: as §1

[3] = tested on: Triticum aestivum (TRZAS); settings: pre-emergence, crop plant compatibility, in comparison to untreated controls
How it was run: as §1

[4] = tested on: Zea mays (ZEAMX); settings: pre-emergence, crop plant compatibility, in comparison to untreated controls
How it was run: as §1

[5] = tested on: Amaranthus retroflexus (AMARE); assay: Post-emergence herbicidal action against AMARE
How it was run: (§2)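 Greenhouse plants sprayed at the one-leaf stage, 2–3 weeks after sowing, with WP or EC formulations plus 0.5% additive at 600 l/ha water. Activity rated visually after about 3 weeks versus untreated controls (100% = dead, 0% = like control), at 320 g/ha or lower.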

[6] = tested on: Oryza sativa (ORYSA); settings: crop plant compatibility
How it was run: (§3)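 Foliar application at the one-leaf stage: WP/EC formulation, 0.5% additive, 600 l/ha water. Greenhouse-grown in sandy loam. Endpoint is visual % injury relative to untreated controls at about 3 weeks.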

[7] = tested on: Triticum aestivum (TRZAS); settings: crop plant compatibility, effect vs untreated controls
How it was run: as §3

[8] = tested on: Zea mays (ZEAMX); settings: for Post-emergence action against ZEAMX in % (crop plant compatibility): 20 g/ha, effect in comparison to untreated controls; for Post-emergence action against ZEAMX in %: crop plant compatibility, effect vs untreated controls
How it was run: as §3

[9] = tested on: Abutilon theophrasti (ABUTH); assay: Pre-emergence herbicidal action against ABUTH; settings: Dosage column 320 g/ha (title prints 3200 g/ha); scored visually after about 3 weeks; 100% = plants have died
How it was run: (§4)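 Read-out is visual percent damage relative to untreated pots, with 100% meaning dead plants and 0% meaning no difference, assessed roughly three weeks after treatment. Compounds were applied pre-emergence to the covering soil at up to 320 g/ha.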

[10] = tested on: Amaranthus retroflexus (AMARE); assay: Pre-emergence herbicidal action against AMARE; settings: 320 g/ha, visual scoring after about 3 weeks vs untreated controls
How it was run: as §4

[11] = tested on: Lolium rigidum (LOLRI); assay: Pre-emergence herbicidal action against LOLRI; settings: dosage 320 g/ha
How it was run: as §4

[12] = tested on: Setaria viridis (SETVI); assay: Pre-emergence herbicidal action against SETVI; settings: dosage 320 g/ha
How it was run: as §4

[13] = tested on: Viola tricolor (VIOTR); assay: Pre-emergence herbicidal action against VIOTR; settings: 320 g/ha, Viola tricolor
How it was run: as §4

[14] = tested on: Avena fatua (AVEFA); assay: Post-emergence herbicidal action against AVEFA; settings: 320 g/ha, visual rating about 3 weeks after treatment
How it was run: as §2

[15] = tested on: Echinochloa crus-galli (ECHCG); assay: Post-emergence herbicidal action against ECHCG; settings: dosage 320 g/ha
How it was run: as §2

[16] = tested on: Polygonum convolvulus (POLCO); assay: Post-emergence herbicidal action against POLCO; settings: dosage 320 g/ha
How it was run: as §2

[17] = tested on: Pharbitis purpurea (PHBPU); assay: Post-emergence herbicidal action against PHBPU; settings: dosage 80 g/ha
How it was run: as §2

[18] = 80 g/ha, visual rating about 3 weeks after treatment vs untreated controls (100% = plants have died, 0% = like control plants)
[19] = 20 g/ha, effect vs untreated controls
[20] = 80 g/ha, effect in comparison to untreated controls
[21] = 320 g/ha, visual rating about 3 weeks after treatment
[22] = 320 g/ha, effect in comparison to untreated controls

SMILES | Pre-emergence action against GLXMA in % [1] [%] | Pre-emergence action against ORYSA in % ([2]; 80 g/ha) [%] | Pre-emergence action against ORYSA in % ([2]; 320 g/ha) [%] | Pre-emergence action against TRZAS in % ([3]; 80 g/ha) [%] | Pre-emergence action against TRZAS in % ([3]; 320 g/ha) [%] | Pre-emergence action against ZEAMX in % ([4]; 80 g/ha) [%] | Pre-emergence action against ZEAMX in % ([4]; 320 g/ha) [%] | Post-emergence action against AMARE in % [5, 18] [%] | Post-emergence action against ORYSA in % [6, 19] [%] | Post-emergence action against ORYSA in % [6, 20] [%] | Post-emergence action against TRZAS in % ([7]; 20 g/ha) [%] | Post-emergence action against TRZAS in % ([7]; 80 g/ha) [%] | Post-emergence action against ZEAMX in % (crop plant compatibility) [8] [%] | Post-emergence action against ZEAMX in % ([8]; 80 g/ha) [%] | Pre-emergence action against AMARE in % [10] [%] | Pre-emergence action against VIOTR in % [13] [%] | Post-emergence action against AMARE in % [5, 21] [%] | Post-emergence action against ORYSA in % [6, 22] [%] | other results
COC(=O)[C@H](C)NC(=O)COc1nn(-c2ccnc(Cl)c2)c(-c2ccc(F)nc2)c1Br [III-18] | 0 | 0 | 0 | 0 | 20 | 20 | 20 | 80 | 0 | 0 | 0 | 0 | 0 | 0 |  |  |  |  | 
O=C(COc1nn(-c2ccccn2)c(-c2ccc(F)nc2)c1Br)NS(=O)(=O)CC(F)(F)F [Example I-60] | 20 | 0 |  | 0 |  | 0 |  | 80 |  | 0 |  |  |  |  | 90 | 80 | 80 | 0 | Pre-emergence action against ABUTH [9]: 80%; Pre-emergence action against LOLRI in % [11]: 80%; Pre-emergence action against SETVI in % [12]: 80%; Post-emergence action against AVEFA in % [14]: 90%; Post-emergence action against ECHCG in % [15]: 80%; Post-emergence action against POLCO in % [16]: 80%
COC(=O)[C@H](C)COC(=O)COc1nn(-c2ccnc(Cl)c2)c(-c2ccc(F)nc2)c1Br [III-17] | 0 | 0 | 10 | 0 |  | 20 | 20 | 80 | 0 | 0 | 20 |  | 20 | 20 | 90 |  |  |  | Post-emergence action against PHBPU in % [17]: 80%
O=C(O)COc1nn(-c2ccncc2)c(-c2ccc(F)nc2)c1Br [III-09] | 20 | 0 | 0 | 0 | 0 | 0 | 0 |  |  | 0 |  | 0 |  | 10 | 80 | 80 | 80 | 0 | Post-emergence action against TRZAS in % ([7]; 320 g/ha): 0%; Post-emergence action against ZEAMX in % ([8]; 320 g/ha): 10%
